Results reported in patent US20060116392A1, “Methods for treating anxiety disorders and related article of manufacture” (priority 2004, published 2006).

Legend:
morphine CPP [1] = test: Maintenance of morphine CPP after contextual reactivation (Test 1); inhibitor given after recall; type: in vivo, Long Evans rats; settings: for CPP score, mean±SEM: injection immediately after Test 1 (1 week after conditioning), Test 2, 24 hours later, cycloheximide and anisomycin scores combined; for change in CPP score: injection immediately after Test 1, re-tested 24 hours later (Test 2)
Description: The purpose of second set of experiments was to determine whether morphine CPP becomes labile if recalled. Groups of rats were conditioned to morphine for 4 days. […] This test recalled the experience (Test 1), or, in other words, reactivated CPP. Immediately after Test 1, half of the rats received an injection of cycloheximide or anisomycin and half were injected with vehicle. The animals were re-tested 24 hours later (Test 2). […] (Test1-vehicle: 394.4±42.6 sec; Test1-inhibitor: 387.8±25.8 sec; Test2-vehicle 413.3±35.9 sec; Test2-inhibitor 425.9±25.3 sec) (FIG. 2). Because both cycloheximide and anisomycin-treated rats performed similarly, their scores were combined.
(§1) Adult Long Evans rats (200-250 grams) were used for all the experiments. On day 1, the rats received a single pre-exposure test in a box composed of two distinct compartments (Pre-conditioning). The time spent in each chamber over 10 minutes was recorded (unconditioned preference) and then the animals were returned to their homecages. Animals showing a strong unconditioned preference (>540 s) were discarded. On the subsequent 4 days, place preference conditioning was conducted using an unbiased procedure. In each experimental group, the animals received a subcutaneous injection of either morphine (10 mg/kg) or saline (vehicle solution). Half of both groups were confined for 30 minutes in the spontaneously preferred compartment and the other half in the non-preferred compartment. Testing consisted of allowing the animals free access to both chambers for 10 minutes and recording the amount of time that the animals spend in the conditioned chamber (CPP score). All protocols complied with the N.I.H. Guide for the Care and Use of Laboratory Animals and were approved by the Mount Sinai School of Medicine Animal care Committees.
(§2) Anisomycin and Cycloheximide were injected s.c. at 210 mg/Kg (Milekic and Alberini, 2002) and 2.8 mg/Kg (Squire et al., 1980), respectively. Anisomycin was dissolved as previously described (Milekic and Alberini, 2002). Cycloheximide was dissolved in DMSO and finally diluted in 1% DMSO/saline. Vehicle solutions were prepared accordingly.

morphine CPP [2] = test: Consolidated morphine CPP after a single reconditioning session; inhibitor given after reconditioning; type: in vivo, Long Evans rats
Text: However, it is important to consider that during morphine CPP, the drug may serve as an internal reinforcer and the animal experiences a strong reward. It remained unknown whether CPP may become labile if the rewarding state of the drug experience is concomitantly reactivated with the contextual cues (reconditioning). Therefore, it was examined whether a previously formed CPP becomes labile after a reconditioning session. Rats were conditioned to morphine for 4 days and, 1 week later, were exposed to another, single conditioning session. Immediately after this session, half of the animals received an injection of inhibitor (cycloheximide or anisomycin) and the other half of vehicle solution and were then all retested 24 hours and 1 week later.
It was then tested whether blocking protein synthesis after reconditioning for a longer time would result in a stable disruption of CPP. Groups of rats were treated as above but received two injections of cycloheximide, one immediately after reconditioning and the second 5 hours later, a protocol that, as described in the first set of experiments, block 70% of protein synthesis for several hours.
as §1, §2

morphine CPP [3] = test: Induction of morphine conditioned place preference (CPP); inhibitor given after conditioning; type: in vivo, Long Evans rats; settings: for CPP score (time spent in drug associated-chamber), mean±SEM: single s.c. dose at end of four-day conditioning, anisomycin and cycloheximide groups combined; for effect on morphine CPP: single s.c. dose at the end of four-day conditioning, tested at 24 hours
Description: . CPP was tested after 24 hours. To determine whether the effect was stable, the animals were retested 1 week later.
(§3) Because both anisomycin and cycloheximide produced a similar effect, the CPP score of the two groups were combined. […] Further experimentation was needed to determine whether a more extended inhibition of protein synthesis was able to persistently block CPP. Groups of rats were treated as above but received two injections of cycloheximide, one immediately after the last conditioning session and the second 5 hours later. In parallel, the rates of protein synthesis inhibition, over time, following a single or double injection were established. […] With a double injection, 5 hours apart, the rate of protein synthesis inhibition at 6 hours was maintained at 71%. The results after two injections were similar to those after a single injection; in fact, the CPP of rats that received two injection of cycloheximide was inhibited at 24 hours, but recovered a week later (data not shown).
Experimentation was needed to test the possibility that blocking protein synthesis after each daily conditioning produced a stable loss of CPP. Groups of rats received an injection of either cycloheximide or vehicle every day at the end of each conditioning trial and were then tested 24 hours, 1 week and 4 weeks later. […] This inhibition persisted at 1 week (254.8±32.8 sec and 429.4±33.1 sec, respectively, p<0.01) and 4 weeks (243.3±21.8 sec and 416.8±31.4 sec, respectively, p<0.01) post-conditioning (FIG. 1B).
as §1, §2

morphine CPP [4] = test: Morphine CPP, conditioning context omitted (injections in homecage); type: in vivo, Long Evans rats
Description: (3C) The conditioning context was omitted and rats (n=8) were injected in their home cage with morphine and 30 min later with cycloheximide at the same time point as in (3A) and (3B). CPP was tested 24 hr after injection (post-injection).
(3D) Rats were injected only with cycloheximide (n=9) in the home cage at the same time points as in (3A) and (3B) without receiving either morphine or exposure to the conditioning context. CPP was tested 24 hr after the last injection (post-injection).
To investigate whether the blocking effect of the inhibitors on CPP was context-specific, the conditioning context was omitted, that is morphine and cycloheximide were administered in the homecages at the same times after conditioning.
as §1
Anisomycin and Cycloheximide were injected s.c. at 210 mg/Kg (Milekic and Alberini, 2002) and 2.8 mg/Kg (Squire et al., 1980), respectively. Anisomycin was dissolved as previously described (Milekic and Alberini, 2002). […]

protein synthesis = test: Inhibition of protein synthesis in brain (L-[35S]methionine incorporation); type: in vivo, rats
Description: as §3
Inhibition of protein synthesis was assessed according to Rosenblum et al. (1993) with modifications. Rats were injected with 125 μCi L-[^35S]methionine (i.p.) and immediately after received an injection of either protein synthesis inhibitors, (cycloheximide or anisomycin) or vehicle solution. The rats were sacrificed one hour after the last inhibitor injection. The brains were homogenized in 5 volumes of cold lysis buffer (1% SDS, 60 mM Tris.Cl pH 7.4, 62.4 mM imidazole, 40 mM DTT, 10% glycerol). The homogenates were boiled for 5 min and centrifuged at 18,000 g for 20 min at room temperature. Equal amount of proteins were precipitated with 20% TCA and the radioactivity was counted. The inhibition of protein synthesis was calculated as: [1−(CPMinhibitor/CPMvehicle)]×100.

[5] = single injection immediately after reconditioning, 1 week later, cycloheximide or anisomycin combined
[6] = single injection immediately after reconditioning, 24 hours after reconditioning, cycloheximide or anisomycin combined
[7] = injection every day at the end of each conditioning trial, 24 hours after conditioning

COc1ccc(C[C@H]2NC[C@H](O)[C@H]2OC(C)=O)cc1 [anisomycin]
CPP score, mean±SEM (morphine CPP [1]): 425.9 ± 25.3 s
change in CPP score (morphine CPP [1]): No change
CPP score, mean±SEM (morphine CPP [2]; [5]): 365.4 ± 45.1 s
CPP score, mean±SEM (morphine CPP [2]; [6]): 261.5 ± 33.9 s
CPP score (time spent in drug associated-chamber), mean±SEM (morphine CPP [3]; 24 hours): 280.1 ± 17.5 s
CPP score (time spent in drug associated-chamber), mean±SEM (morphine CPP [3]; re-tested 1 week later): 358.9 ± 28.0 s
effect on morphine CPP (morphine CPP [3]): completely blocked

C[C@@H]1C[C@@H]([C@H](O)CC2CC(=O)NC(=O)C2)C(=O)[C@@H](C)C1 [cycloheximide]
effect on CPP (morphine CPP [4]; morphine and cycloheximide administered in the homecages, conditioning context omitted): No blocking effect
CPP score, mean±SEM (morphine CPP [4]; morphine and cycloheximide administered in the homecages, conditioning context omitted, post-conditioning (24 hr after injection)): 362.22 ± 17.4 s
CPP score, mean±SEM (morphine CPP [4]; only the inhibitor in the homecage, morphine and context omitted, post-conditioning (24 hr after last injection)): 399.8 ± 31.6 s
CPP score, mean±SEM (morphine CPP [1]): 425.9 ± 25.3 s
change in CPP score (morphine CPP [1]): No change
CPP score, mean±SEM (morphine CPP [2]; double injection (immediately after reconditioning and 5 hours later), 24 hours): 264.1 ± 13.3 s
CPP score, mean±SEM (morphine CPP [2]; double injection after reconditioning, 1 week): 239.9 ± 34.4 s
CPP score, mean±SEM (morphine CPP [2]; double injection after reconditioning, 2 weeks): 270.1 ± 27.2 s
CPP score, mean±SEM (morphine CPP [2]; double injection after reconditioning, 4 weeks): 278.4 ± 32.5 s
effect on CPP (morphine CPP [2]; double injection after reconditioning, tested 24 hours to 4 weeks): completely and persistently blocked
CPP score, mean±SEM (morphine CPP [2]; [5]): 365.4 ± 45.1 s
CPP score, mean±SEM (morphine CPP [2]; [6]): 261.5 ± 33.9 s
CPP score, mean±SEM (morphine CPP [3]; injection every day at the end of each conditioning trial, 1 week post-conditioning): 254.8 ± 32.8 s
CPP score, mean±SEM (morphine CPP [3]; injection every day at the end of each conditioning trial, 4 weeks post-conditioning): 243.3 ± 21.8 s
CPP score, mean±SEM (morphine CPP [3]; [7]): 226.6 ± 47.2 s
effect on CPP (morphine CPP [3]; [7]): complete inhibition
CPP score (time spent in drug associated-chamber), mean±SEM (morphine CPP [3]; 24 hours): 280.1 ± 17.5 s
CPP score (time spent in drug associated-chamber), mean±SEM (morphine CPP [3]; re-tested 1 week later): 358.9 ± 28.0 s
effect on morphine CPP (morphine CPP [3]): completely blocked
effect on CPP (morphine CPP [3]; two injections (immediately after last conditioning session and 5 hours later), a week later, data not shown): recovered
effect on CPP (morphine CPP [3]; two injections (immediately after last conditioning session and 5 hours later), at 24 hours, data not shown): inhibited
inhibition of protein synthesis (protein synthesis; double injection, 5 hours apart, at 6 hours): 71%
inhibition of protein synthesis (protein synthesis; single injection, at 1 hour): 70%
inhibition of protein synthesis (protein synthesis; single injection, at 6 hours after injection): 23%
protein synthesis blocked (protein synthesis; two injections, 5 hours apart, for several hours): 70%
